Data as given in patent publication US10183006B2, “Methods of therapeutic monitoring of nitrogen scavenging drugs” (Horizon Therapeutics, LLC, priority 2011, dated 2019).
One block for each compound: values may come before it.

What was measured:
[1] = Two long term studies, HPN-100 for 12 months in pediatric UCD patients: monthly fasting ammonia and hyperammonemia episodes; format: in vivo, human
From the text: The relationship between reducing ammonia burden by maintaining fasting ammonia at or close to half ULN and neuropsychological outcomes in pediatric UCD patients was explored in clinical trials. […] These patients underwent 24-hr serial sample collection in a confined setting where the last sample at 24 hr was considered fasting and under supervision of the study personnel. At the end of treatment with HPN-100 the average fasting ammonia at 24-hr time point was 15.5 μmol/L or less than half ULN, indicating good clinical control. These 11 patients along with another 15 pediatric patients were enrolled in two long term studies and received HPN-100 for 12 months, during which monthly fasting ammonia were collected. At the time of enrollment and at the end of the study, all patients underwent assessment for neuropsychological outcomes including the following: BRIEF (Behavior Rating Inventory of Executive Function) to assess day-to-day executive functioning, CBCL (Child Behavior Checklist) to evaluate internalizing (e.g., mood/anxiety) and externalizing behaviors, and WASI (Wechsler Abbreviated Scale of Intelligence) to estimate of intellectual ability. […]

[2] = Illustrative UCD patient cases (Patients A, B, C): blood ammonia under nitrogen scavenging drug
From the text: In certain embodiments of the methods disclosed herein, blood samples used for measuring fasting blood ammonia levels and/or ULN blood ammonias are venous blood samples. In certain embodiments, a blood sample is a plasma blood sample. Any methods known in the art may be used to obtain a plasma blood sample. For example, blood from a subject may be drawn into a tube containing heparin or ethylenediaminetetraacetic acid (EDTA). In certain embodiments, the sample can be placed on ice and centrifuged to obtain plasma within 15 minutes of collection, stored at 2-8° C. […] In other embodiments, the blood plasma sample is snap frozen, stored at ≤−18° C. […] In certain embodiments, blood samples are taken in a laboratory or hospital setting. In certain embodiments, a single fasting blood sample is used to measure fasting blood ammonia level. However, in other embodiments, multiple fasting blood samples may be obtained. In certain embodiments, a subject's blood ammonia level may be monitored throughout the day. Further, in certain embodiments, the methods disclosed herein comprise an additional step of obtaining one or more blood samples from a subject prior to or after measuring fasting blood ammonia level.
Measurement of ammonia levels in a fasting blood sample is carried out using techniques known in the art. For example, ammonia levels may be measured using a colorimetric reaction or an enzymatic reaction. In certain embodiments, a colorimetric reaction may involve the use of bromophenol blue as an ammonia indicator. In these embodiments, ammonia may react with bromophenol blue to yield a blue dye. In certain embodiments, an enzymatic reaction may involve glutamate dehydrogenase catalyzing the reductive amination of 2-oxoglutarate with NH^4+ and NADPH to form glutamate and NADP^+. The formation of NADP^+ formed is directly proportional to the amount of ammonia present in the blood sample. Therefore, the concentration of ammonia is measured based on a decrease in absorbance.
Initial dosage is determined based on body surface area or as otherwise instructed according to HPN-100 drug labeling.

[3] = HPN-100 in subjects with hepatic impairment with cirrhosis and healthy adults (Study UP 1204-002): urinary excretion; format: in vivo, human; conditions: for PAGN Proportion excreted post-24 hours (%), of total PAGN eliminated over 48 hours: after dosing on day 1
Experimental: (§1) To determine its pharmacokinetic (PK) and pharmacodynamic (PD) profile in patients with liver disease, clinical testing was conducted in which HPN-100 was administered orally as a single dose (100 mg/kg/day on day 1), and twice daily for 7 consecutive days (200 mg/kg/day on days 8 through 14, in two doses of 100 mg/kg per dose), to subjects with hepatic impairment with cirrhosis (Child-Pugh scores of A, B, or C) and to a gender and age-matched control group of healthy adults with normal hepatic function. On day 15, subjects received a single dose of HPN-100 (100 mg/kg). PK blood samples were taken pre-dose, at 15 and 30 minutes post-dose, and at 1, 1.5, 2, 3, 4, 6, 8, 12, and 24 hours post-dose on days 1, 8, and 15, and at 48 hours after dosing on days 1 and 15. On days 9-14, blood samples were taken pre-morning dose and at 2 hours post-morning dose. Urine was collected 0-4, 4-8, 8-12, and 12-24 hours post-dose on days 1, 8, and 15, and at 24-48 hours post-dose on days 1 and 15.

[4] = Relationship between PAA levels and neurological AEs in UCD patients (switchover and 12-month protocols); format: in vivo, human; conditions: short term switchover
[5] = Population PK model (NONMEM) and Monte Carlo dosing simulations in UCD patients; parameters: species or system human
Experimental: Diagnostic plots and statistical comparisons were used to select among candidate models, and covariates were assessed by graphical analyses and covariate modeling.

[6] = Short term switch over comparison of NaPBA and HPN-100 in controlling ammonia, 24-hr serial sampling, pediatric UCD patients; format: in vivo, human; conditions: end of treatment with HPN-100; 11 pediatric UCD patients ages 6-17
From the text: (§2) The relationship between reducing ammonia burden by maintaining fasting ammonia at or close to half ULN and neuropsychological outcomes in pediatric UCD patients was explored in clinical trials. […] These patients underwent 24-hr serial sample collection in a confined setting where the last sample at 24 hr was considered fasting and under supervision of the study personnel. At the end of treatment with HPN-100 the average fasting ammonia at 24-hr time point was 15.5 μmol/L or less than half ULN, indicating good clinical control. These 11 patients along with another 15 pediatric patients were enrolled in two long term studies and received HPN-100 for 12 months, during which monthly fasting ammonia were collected. At the time of enrollment and at the end of the study, all patients underwent assessment for neuropsychological outcomes including the following: BRIEF (Behavior Rating Inventory of Executive Function) to assess day-to-day executive functioning, CBCL (Child Behavior Checklist) to evaluate internalizing (e.g., mood/anxiety) and externalizing behaviors, and WASI (Wechsler Abbreviated Scale of Intelligence) to estimate of intellectual ability.

[7] = Neuropsychological outcomes (BRIEF, CBCL, WASI) after 12 months HPN-100 in pediatric UCD patients; format: in vivo, human
From the text: as §2
In pediatric patients, WASI and CBCL scores were stable in comparison to baseline. The majority of the BRIEF subscales at baseline were at or close to 65, consistent with borderline and/or clinically significant dysfunction. Among 22 pediatric subjects who completed the neuropsychological testing at 12 months, all BRIEF domains were improved (lower T scores) with means (SD) at end of study compared to baseline for Behavioral Regulation Index 53.7 (9.79) vs. 60.4 (14.03) (p<0.05); Metacognition Index 57.5 (9.84) vs. 67.5 (13.72) (p<0.001), and Global Executive Scale 56.5 (9.71) vs. 66.2 (14.02) (p<0.001).

[8] = HPN-100 in subjects with hepatic impairment with cirrhosis and healthy adults: plasma metabolites; format: in vivo, human; conditions: all plasma samples, all subject groups
Experimental: as §1

[9] = Patient A, 3 mL dose with each meal
[10] = after dosing on day 1 (0-48 hours), Child-Pugh A
[11] = after dosing on day 1 (0-48 hours), Child-Pugh B
[12] = after dosing on day 1 (0-48 hours), Child-Pugh C
[13] = after dosing on day 1 (0-48 hours), Healthy Volunteers

urinary PAGN Amount Excreted ([3]; after dosing on day 1 (0-24 hours), Child-Pugh A (n = 8)): 15553 µmol
urinary PAGN Amount Excreted ([3]; after dosing on day 1 (0-24 hours), Child-Pugh B (n = 8)): 16847 µmol
urinary PAGN Amount Excreted ([3]; after dosing on day 1 (0-24 hours), Child-Pugh C (n = 8)): 19291 µmol
urinary PAGN Amount Excreted ([3]; after dosing on day 1 (0-24 hours), Healthy Volunteers (n = 8)): 14903 µmol
PAGN Mole % of dose excreted [3, 10]: 47.1 Mole %
urinary PAGN Amount Excreted [3, 10]: 18386 µmol
PAGN Mole % of dose excreted [3, 11]: 44.9 Mole %
urinary PAGN Amount Excreted [3, 11]: 19902 µmol
PAGN Mole % of dose excreted [3, 12]: 48.5 Mole %
urinary PAGN Amount Excreted [3, 12]: 20854 µmol
PAGN Mole % of dose excreted [3, 13]: 42.2 Mole %
urinary PAGN Amount Excreted [3, 13]: 17869 µmol
PAGN Proportion excreted post-24 hours (%), of total PAGN eliminated over 48 hours ([3]; Child-Pugh A): 15.5%
PAGN Proportion excreted post-24 hours (%), of total PAGN eliminated over 48 hours ([3]; Child-Pugh B): 14.5%
PAGN Proportion excreted post-24 hours (%), of total PAGN eliminated over 48 hours ([3]; Child-Pugh C): 8.8%
PAGN Proportion excreted post-24 hours (%), of total PAGN eliminated over 48 hours ([3]; Healthy Volunteers): 16.9%
urinary PAGN Amount Excreted ([3]; after dosing on day 8 (0-12 hours), after first 100 mg/kg morning dose, Child-Pugh A): 16068 µmol
urinary PAGN Amount Excreted ([3]; after dosing on day 8 (0-12 hours), after first 100 mg/kg morning dose, Child-Pugh B): 13179 µmol
urinary PAGN Amount Excreted ([3]; after dosing on day 8 (0-12 hours), after first 100 mg/kg morning dose, Child-Pugh C): 15428 µmol
urinary PAGN Amount Excreted ([3]; after dosing on day 8 (0-12 hours), after first 100 mg/kg morning dose, Healthy Volunteers): 10195 µmol
PAGN Mole % of dose excreted ([3]; after dosing on day 8 (0-12 hours), Child-Pugh A): 40.6 Mole %
PAGN Mole % of dose excreted ([3]; after dosing on day 8 (0-12 hours), Child-Pugh B): 29.9 Mole %
PAGN Mole % of dose excreted ([3]; after dosing on day 8 (0-12 hours), Child-Pugh C): 44.6 Mole %
PAGN Mole % of dose excreted ([3]; after dosing on day 8 (0-12 hours), Healthy Volunteers): 24.5 Mole %
PAGN Mole % of dose excreted ([3]; after dosing on day 15 (0-48 hours), % of the single morning dose of day 15, Child-Pugh A): 79.6 Mole %
PAGN Mole % of dose excreted ([3]; after dosing on day 15 (0-48 hours), % of the single morning dose of day 15, Child-Pugh B): 58.2 Mole %
PAGN Mole % of dose excreted ([3]; after dosing on day 15 (0-48 hours), % of the single morning dose of day 15, Child-Pugh C): 85.0 Mole %
PAGN Mole % of dose excreted ([3]; after dosing on day 15 (0-48 hours), % of the single morning dose of day 15, Healthy Volunteers): 68.6 Mole %
urinary PAGN Amount Excreted ([3]; after dosing on day 15 (0-48 hours), Child-Pugh A): 31431 µmol
urinary PAGN Amount Excreted ([3]; after dosing on day 15 (0-48 hours), Child-Pugh B): 25152 µmol
urinary PAGN Amount Excreted ([3]; after dosing on day 15 (0-48 hours), Child-Pugh C): 30752 µmol
urinary PAGN Amount Excreted ([3]; after dosing on day 15 (0-48 hours), Healthy Volunteers): 28716 µmol
average conversion of HPN-100 to PAGN ([3]; after single dose administration, cirrhosis and healthy volunteers): 40-50%
HPN-100 dose administered excreted as PAGN ([3]; day 1): 42-49%
HPN-100 dose administered excreted as PAGN ([3]; day 8): 25-45%
HPN-100 dose administered excreted as PAGN ([3]; day 15): 58-85%
fractional presystemic metabolism of PBA ([5]; adults): 43%
slower PBA absorption when delivered as GPB vs. NaPBA ([5]; final popPK model): ~60%
fractional presystemic metabolism of PBA ([5]; pediatric patients): 14%
Compound: O=C(CCCc1ccccc1)OCC(COC(=O)CCCc1ccccc1)OC(=O)CCCc1ccccc1 [HPN-100, glyceryl tri-[4-phenylbutyrate]]
episodes of acute hyperammonemia ([1]; during 12 month treatment, pediatric UCD patients, 9 in the 12 months before enrollment): 5
peak ammonia, mean ([1]; during the 12 month study, 233 μmol/L before enrollment): 166 µmol/L
fasting blood ammonia level ([2]; Patient A, adult UCD, 9 mL/day for at least 7 days, 52 μmol/L before treatment): 33 µmol/L
average daily ammonia [2, 9]: 66 µmol/L
maximum ammonia after dinner [2, 9]: 95 µmol/L
fasting ammonia level ([2]; Patient A, 12 mL total or 4 mL TID for at least 7 days): 15 µmol/L
fasting blood ammonia level ([2]; Patient B, 3.5 mL 3 times a day for at least 7 days): 17 µmol/L
effect of hepatic impairment on ammonia-scavenging ability ([3]; urinary PAGN excretion, Child-Pugh groups vs healthy volunteers): no significant effect
relationship between neurological AEs and PAA levels [4]: No statistically significant relationship
average fasting ammonia at 24-hr time point [6]: 15.5 µmol/L
BRIEF Behavioral Regulation Index, T score mean (SD) at end of study ([7]; 22 pediatric subjects, baseline 60.4 (14.03), p<0.05): 53.7 (9.79)
BRIEF Global Executive Scale, T score mean (SD) at end of study ([7]; 22 pediatric subjects, baseline 66.2 (14.02), p<0.001): 56.5 (9.71)
BRIEF Metacognition Index, T score mean (SD) at end of study ([7]; 22 pediatric subjects, baseline 67.5 (13.72), p<0.001): 57.5 (9.84)
WASI and CBCL scores in comparison to baseline ([7]; pediatric patients): stable

alternative HPN-100 metabolite level in plasma [8]: below the limit of quantification
Compound: O=C(O)CNC(=O)Cc1ccccc1 [PAG, phenylacetyl glycine]

alternative HPN-100 metabolite level in plasma [8]: below the limit of quantification
Compound: O=C(O)CNC(=O)CCCc1ccccc1 [PBG, phenylbutyryl glycine]

alternative HPN-100 metabolite level in plasma [8]: below the limit of quantification
Compound: NC(=O)CC[C@H](NC(=O)CCCc1ccccc1)C(=O)O [PBGN, phenylbutyryl glutamine]

Compound: O=C([O-])c1ccccc1.[Na+] [sodium benzoate, reference compound]
fasting blood ammonia level ([2]; Patient C, adult UCD, 15 g/day for at least 7 days, 77 μmol/L before treatment): 35 µmol/L
fasting ammonia level ([2]; Patient C, 18 grams per day for at least 7 days): 15 µmol/L

fractional presystemic metabolism of PBA ([5]; adults): 23%
fractional presystemic metabolism of PBA ([5]; pediatric patients): 43%
Compound: sodium phenylbutyrate [NaPBA, reference compound]
fasting blood ammonia level ([2]; Patient B, 11-year UCD patient, 24 pills per day, suspected noncompliant): 40 µmol/L
relationship between neurological AEs and PAA levels [4]: No statistically significant relationship
